This test concerns Ratte. Put plainly: Abortive effect in pregnant rats (measure of antigestagenic activity). Format: in vivo. The following applies: for n Abort / n Gesamt: subcutan, d5 p.c. to d7 p.c., uteri examined d9 p.c., absence of implants counted as abortion. An excerpt:
Zur Kennzeichnung der antigestagenen Wirkung wurde die abortive Wirkung bestimmt.
Die Versuche wurden an weiblichen Ratten im Gewicht von ca. 200 g durchgeführt. Nach erfolgter Anpaarung wurde der Schwangerschaftsbeginn durch Nachweis von Spermien in Vaginalabstrichen gesichert. Der Tag des Spermiennachweises gilt als Tag 1 der Gravidität (= dl p.c.).
Die Behandlung der Tiere mit der jeweils zu testenden Substanz bzw. dem Lösungsmittel erfolgte nach der Nidation der Blastocysten von d5 p.c. bis d7 p.c.
An d9 p.c. wurden die Tiere getötet und die Uteri auf Implantate und Resorptionsstellen hin untersucht. Von allen Uteri wurden Fotos angefertigt. Das Fehlen von Implantaten wurde als Abort gewertet.
Die Testsubstanzen wurden in einem Benzylbenzoat-Rizinusöl-Gemisch (Verhältnis 1 + 9) gelöst. Das Vehikelvolumen pro Einzeldosis betrug 0,2 ml. Die Behandlung erfolgte subcutan.

The values below come from EP0127864A2, “D-homo-4,9,16-estratrienes, their preparation and pharmaceutical compositions containing them” (SCHERING AKTIENGESELLSCHAFT, priority 1983, dated 1984).

Regarding `CC#C[C@]1(O)C=CC[C@H]2[C@@H]3CCC4=CC(=O)CCC4=C3[C@@H](c3ccc(N(C)C)cc3)C[C@@]21C` [A, 11ß-(4-Dimethylaminophenyl)-17aß-hydroxy-17aα-(1-propinyl)-U-homo-4,9,16-estratrien-3-on], the “Wirksamkeit (Abortauslösung)” value (Dosierung 1,0 mg, result in words) is recorded as “voll wirksam”. Besides, the “n Abort / n Gesamt” value by setting is: (Dosis 0.3 mg/Tier/Tag) 2/4; (Dosis 1.0 mg/Tier/Tag) 4/4; (Dosis 3.0 mg/Tier/Tag) 4/4; (Dosis 10.0 mg/Tier/Tag) 4/4.
Turning to `CC#C[C@]1(O)CC[C@H]2[C@@H]3CCC4=CC(=O)CCC4=C3[C@@H](c3ccc(N(C)C)cc3)C[C@@]21C` [B, 11ß-(4-Dimethylaminophenyl)-17ß-hydroxy-17a-(propin-1-yl)-4,9(10)-estradien-3-on, reference compound], for the setting “Dosierung 1,0 mg”, the Aborte came out at 50%. For the same compound, the “n Abort / n Gesamt” value was 2/4 (Dosis 1.0 mg/Tier/Tag), 4/4 (Dosis 3.0 mg/Tier/Tag) and 4/4 (Dosis 10.0 mg/Tier/Tag).
